The assay concerns the target T1, SrtA (Staphylococcus aureus, UniProt Q2FV99).
T1 construct: His6 (N); made in house; host or cells: E. coli BL21, pET21b plasmid
The experiment in a line: biochemical. On the set-up: species or system S. aureus. The procedure: In order to screen the activity of SrtA inhibitors, a FRET-based functional assay was used which employs an internally quenched fluorescent (IQF) substrate, Abz-LPETGK(Dnp)-NH2 (Fig. S37a ^†).[5] […] 5-((C4-Nitrobenzyl)thio)-1,3,4-thiadiazol-2-amine was used as a reference inhibitor in the experiment.[42] […]
Fluorescence resonance energy transfer assay
For the FRET assay, the compound 5-((4-nitrobenzyl) thio)-1,3,4-thiadiazol-2-amine was used as a reference and prepared by dissolving 3 µL of the available stock (10 mM) in […] HEPES and 1% DMSO to afford a 300 µM stock concentration for the assay. This reference compound […]
FRET assay was performed with an internally quenched fluorogenic (IQF) substrate to determine the inhibitory activity of the synthesized peptidomimetics. The assay was performed in a 30 μl reaction mixture in HEPES buffer (50 mM HEPES, 150 mM NaCl, 5 mM CaCl2, 0.05% Tween20, pH 7.5). SrtA solution (200 nM) was preincubated with compounds (200 μM) for 15 min at 22 °C followed by the addition of the substrate solution (25 μM Abz-LPETGK(Dnp)-NH2, 5 mM H-Gly3-OH, final assay concentration) in the same buffer. The cleavage of the Abz/Dnp-substrate was quantified by an increase in the fluorescence signal.
The fluorescence signal was monitored each minute for 45 minutes and plotted to obtain the fluorescence rate as a line curve. The assay was performed in 384 well Corning NBS microplates (flat bottom, no lid, low flange, non-binding surface, non-sterile, white polystyrene).
Fluorescence intensity was measured at emission and excitation wavelengths of […] using a Spectramax iD5 plate reader (Molecular Devices, San Jose, CA, USA). Triplicate measurements were taken for each data point to ensure the reproducibility of the results. The average value of the fluorescence signal readouts was plotted against time over […] for each compound to produce a line curve using Origin. The reference compound was used in the experiment to act as a positive control. The slope of each compound curve (Sx) and the slope of the substrate (S0) were extracted using the linear fit function in Microsoft Origin 2019. The percent inhibition was calculated according to the following equation: inhibitory rate = (1 – Sx/S 0) × 100%. For IC50 values, Sx values at different concentrations were plotted against log transformed concentration values and fitted with a sigmodial fit using the DoseResp function using Origin. The bottom asymptote of the dose-response curve was fixed at 0. The data were reported as mean ± SE%. […]

T1 sequence (Q2FV99 60-206): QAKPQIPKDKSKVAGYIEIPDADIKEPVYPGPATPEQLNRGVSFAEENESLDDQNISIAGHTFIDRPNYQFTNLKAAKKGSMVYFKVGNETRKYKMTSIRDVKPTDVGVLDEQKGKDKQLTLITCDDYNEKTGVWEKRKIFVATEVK

As to H-FLPRDA-NH2 [Compound 22, FLPRDA], for the setting “200 nM SrtA, 200 μM inhibitor, HEPES buffer, mean ± SE, triplicate”, the FRET inhibition was 70.1 ± 5.7%. Moreover, the IC50 (as a rule, the midpoint of a concentration-inhibition curve) (IC50, inhibitor 1 μM to 1500 μM, corrected for molar extinction coefficient) came to 185.3 ± 1.5 µM. Moreover, the inhibition (as a rule, how much of the control response was suppressed) at 200 µM (read-out: FRET inhibition, 200 nM SrtA, 200 μM inhibitor, HEPES buffer, mean ± SE, triplicate) was 70%.

The values are drawn from paper PMC10306101, “Substrate-derived Sortase A inhibitors: targeting an essential virulence factor of Gram-positive pathogenic bacteria” (Chemical Science, 2023).
